Data from patent US9347077B2, “Over-expression of a putative oxidoreductase (UcpA) for increasing furfural or 5-hydroxymethylfurfural tolerance” (UNIVERSITY OF FLORIDA RESEARCH FOUNDATION, INCORPORATED, priority 2011, dated 2016).

Key:
Type in all cases: cell-based, Escherichia coli
LY180/pLOI4856 = experiment: pH-controlled batch fermentation (10% xylose)
Experimental: (§1) Seed pre-cultures of strains containing pTrc99A or pLOI4856 were grown from plates using sealed culture tubes containing AM1 medium (20 g liter^−1 xylose, 12.5 mg liter^−1 ampicillin). After incubation for 16 h, pre-inocula were diluted into 500-ml fermentation vessels containing 300 ml AM1 media (100 g liter^−1 xylose, 1 mM betaine, 0.1 mM IPTG, 12.5 μg ml^−1 ampicillin) to provide a starting density of 13.2 mg dcw. After 24 h growth, these seed cultures were used to provide a starting inoculum for batch fermentations (AM1 medium, 100 g liter^−1 xylose, 12.5 μg ml^−1 ampicillin, 0.1 mM IPTG, 13.2 mg dcw initial density, and furfural). Fermentations were maintained at pH 6.5 […] by the automatic addition of KOH as previously described (Miller et al., 2009b). Ethanol was measured using an Agilent 6890N gas chromatograph (Palo Alto, Calif.) equipped with a flame ionization detector and a 15-meter HP-Plot Q Megabore column. Furfural concentration was monitored using a Beckman DU spectrophotometer (Martinez et al., 2000b; Miller et al., 2009b). Organic acids and xylose were measured by high-performance liquid chromatography (Miller et al., 2009b).
(§2) The effects of UcpA on growth, ethanol production, and furfural metabolism were investigated in more detail during pH-controlled batch fermentation in mineral salt medium (AM1 medium containing 100 g xylose liter^−1, 0.1 mM IPTG and 12.5 μg ml^−1 ampicillin for all cultures harboring plasmids; furfural as indicated; inoculum of 22 mg dcw liter^−1) as previously described (Wang et al., 2011b). Ethanol (retention time 1.1 min) and furfuryl alcohol (retention time 6.2 min) were measured using an Agilent 6890N gas chromatograph (Santa Clara, Calif.) (Miller et al., 2009b). Furoic acid (retention time of 51.2 min) and sugars were measured by high-performance liquid chromatography (Geddes et al., 2010a). Furfural was measured using a Beckman-Coulter DU 800 spectrophotometer (Martinez et al., 2000a).

LY180/pTrc99A = experiment: pH-controlled batch fermentation (10% xylose)
Experimental: as §1, §2

E. coli W/pLOI4856 = experiment: pH-controlled batch fermentation (10% xylose); conditions: 10 mM furfural
XW118 (LY180 ucpA::kan) = experiment: pH-controlled batch fermentation (10% xylose)
Experimental: as §2

E. coli W/pTrc99A = experiment: pH-controlled batch fermentation (10% xylose); conditions: 10 mM furfural
LY180 = experiment: pH-controlled batch fermentation (10% xylose)
[1] = system: oxidoreductase gene mRNA in LY180; experiment: Comparison of mRNA levels before and after furfural addition (expression array); conditions: 1.5 g/L furfural addition in LY180
Experimental: Analysis of mRNA as a measure of gene expression was performed as previously described (Miller et al., 2009a). Cultures were grown using 4 separate 500-ml fermentation vessels per strain. Initial samples (control) were removed for RNA extraction when the culture density reached approximately 0.66 g dry cell weight (dcw) liter^−1 (1.5 OD 550 nm). Furfural (15 mM) was then added and incubation continued. After 15 min incubation with furfural, cells were harvested for RNA extraction. RNA was submitted to NimbleGen for analysis of global expression. Expression data was further analyzed using ArrayStar and Excel.
UcpA was discovered accidentally as a beneficial gene for furfural tolerance during a search for E. coli NADH-utilizing oxidoreductase genes that could reduce furfural and confer resistance. […] We began by comparing expression levels of all E. coli genes in the absence of furfural and in the presence of 15 mM furfural (Table 1). […] These were further sorted to identify 5 candidate oxidoreductases that are known or putative users of NADH and have a 3-fold or higher expression level in the presence of 15 mM furfural. One of the genes was fucO, a gene previously discovered to reduce furfural using NADH and to increase furfural tolerance in E. coli. Four new candidates were identified. Two were operons encoding subunits (xdhABC and YeiTA) and two were monocistronic (ucpA and aldA). These 4 candidates are shown in bold type in Table 2.

[2] = 15 mM furfural, batch fermentation of xylose to ethanol

## O=Cc1ccco1 [furfural]
LY180/pLOI4856; 10 mM furfural
  Cell Yield: 3.6 ± 0.1 g/L
  Furfural-dependent slow growth Duration: 22 ± 2 h
  Furfural-dependent slow growth μ: 0.09 ± 0.01 h⁻¹
  μ Max: 0.14 ± 0.01 h⁻¹
LY180/pLOI4856; 15 mM furfural, 100 g liter^−1 xylose
  Final ethanol yield: approximately 90 % of the theoretical maximum
LY180/pLOI4856; [2]
  Growth lag in the presence of furfural: 24 h
LY180/pTrc99A; 10 mM furfural
  Cell Yield: 0.06 ± 0.01 g/L
  Furfural-dependent slow growth Duration: >72 h
  Furfural-dependent slow growth μ: <0.04 h⁻¹
  μ Max: <0.04 h⁻¹
LY180/pTrc99A; [2]
  Growth in the presence of furfural: unable to grow
E. coli W/pLOI4856
  Cell Yield: 2.5 ± 0.3 g/L
  Furfural-dependent slow growth Duration: 16 ± 2 h
  Furfural-dependent slow growth μ: 0.07 ± 0.01 h⁻¹
  μ Max: 0.18 ± 0.02 h⁻¹
XW118 (LY180 ucpA::kan); 8 mM furfural
  Cell Yield: 4.0 ± 0.1 g/L
  Furfural-dependent slow growth Duration: 55 ± 2 h
  Furfural-dependent slow growth μ: 0.01 ± 0.01 h⁻¹
  μ Max: 0.14 ± 0.01 h⁻¹
XW118 (LY180 ucpA::kan); 10 mM furfural
  Cell Yield: 0.04 ± 0.01 g/L
  Furfural-dependent slow growth Duration: >72 h
  Furfural-dependent slow growth μ: <0.04 h⁻¹
  μ Max: <0.04 h⁻¹
E. coli W/pTrc99A
  Cell Yield: 2.0 ± 0.3 g/L
  Furfural-dependent slow growth Duration: 26 ± 4 h
  Furfural-dependent slow growth μ: 0.03 ± 0.01 h⁻¹
  μ Max: 0.13 ± 0.01 h⁻¹
LY180; 8 mM furfural
  Cell Yield: 4.0 ± 0.1 g/L
  Furfural-dependent slow growth μ: 0.09 ± 0.01 h⁻¹
  μ Max: 0.16 ± 0.01 h⁻¹
LY180; 10 mM furfural
  Cell Yield: 0.08 ± 0.02 g/L
  Furfural-dependent slow growth Duration: >72 h
  Furfural-dependent slow growth μ: <0.04 h⁻¹
  μ Max: <0.04 h⁻¹
[1]; b0283-b0286 yagQRST, 1st value
  Fold increase of mRNA, yagQ: 2.2 fold
[1]; b0283-b0286 yagQRST, 2nd value
  Fold increase of mRNA, yagR: 2.3 fold
[1]; b0283-b0286 yagQRST, 3rd value
  Fold increase of mRNA, yagS: 4.7 fold
[1]; b0283-b0286 yagQRST, 4th value
  Fold increase of mRNA, yagT: 3.5 fold
[1]; b0306
  Fold increase of mRNA, ykgE: 2.0 fold
[1]; b0355-b0356 frmBA, 1st value
  Fold increase of mRNA, frmB: 4.4 fold
[1]; b0355-b0356 frmBA, 2nd value
  Fold increase of mRNA, frmA: 5.7 fold
[1]; b0419
  Fold increase of mRNA, yajO: 2.6 fold
[1]; b0599
  Fold increase of mRNA, ybdH: 3.0 fold
[1]; b0723-b0724 sdhAB, 1st value
  Fold increase of mRNA, sdhA: 5.3 fold
[1]; b0723-b0724 sdhAB, 2nd value
  Fold increase of mRNA, sdhB: 5.8 fold
[1]; b0801
  Fold increase of mRNA, ybiC: 2.2 fold
[1]; b1004
  Fold increase of mRNA, wrbA: 3.0 fold
[1]; b1287
  Fold increase of mRNA, yciW: 2.4 fold
[1]; b1406
  Fold increase of mRNA, ydbC: 2.9 fold
[1]; b1415
  Fold increase of mRNA, aldA: 4.2 fold
[1]; b1444
  Fold increase of mRNA, ydcW: 2.5 fold
[1]; b1449
  Fold increase of mRNA, yncB: 2.6 fold
[1]; b1650
  Fold increase of mRNA, nemA: 6.4 fold
[1]; b2137
  Fold increase of mRNA, yobF: 8.5 fold
[1]; b2146-b2147 yeiTA, 1st value
  Fold increase of mRNA, yeiT: 3.1 fold
[1]; b2146-b2147 yeiTA, 2nd value
  Fold increase of mRNA, yeiA: 3.0 fold
[1]; b2172
  Fold increase of mRNA, yeiQ: 2.3 fold
[1]; b2426
  Fold increase of mRNA, ucpA: 4.5 fold
[1]; b2545
  Fold increase of mRNA, yphC: 2.3 fold
[1]; b2799
  Fold increase of mRNA, fucO: 4.4 fold
[1]; b2868
  Fold increase of mRNA, xdhABC: 5.8 fold
[1]; b2886
  Fold increase of mRNA, ygfS: 2.1 fold
[1]; b2899
  Fold increase of mRNA, yqfA: 2.2 fold
[1]; b3001
  Fold increase of mRNA, yghZ: 2.0 fold
[1]; b3011
  Fold increase of mRNA, yqhD: 4.6 fold
[1]; b3012
  Fold increase of mRNA, dkgA: 5.4 fold
[1]; b3572
  Fold increase of mRNA, yiaK: 2.4 fold
[1]; b3588
  Fold increase of mRNA, aldB: 5.7 fold
